Laboratory results from ChEMBL document CHEMBL1201862, “PubChem BioAssay data set” (2004).
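Cells were grown in 96-well plates and exposed to each compound for 48 hours at five concentrations; endpoints were interpolated linearly between bracketing concentrations, or set to the highest concentration if not reached. Abbreviation: GI50, concentration required for 50% inhibition of growth.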 The source made the active and inactive calls. Rule as the data show it: active = GI50 up to about 1.1 µM and inactive = higher.

Assays:
Assay in all cases: growth of human tumour cells (NCI), 48 h
KM-20L2 = tested on: KM-20L2
A549 = tested on: A549
ACHN = tested on: ACHN
A498 = tested on: A498
K562 = tested on: K562
OVCAR-8 = tested on: OVCAR-8
EKVX = tested on: EKVX
UO-31 = tested on: UO-31
IGROV-1 = tested on: IGROV-1
RXF 393 = tested on: RXF 393
M19-MEL = tested on: M19-MEL
Malme-3M = tested on: Malme-3M
HOP-62 = tested on: HOP-62
SK-MEL-5 = tested on: SK-MEL-5
RXF 631 = tested on: RXF 631
OVCAR-5 = tested on: OVCAR-5
HCT-116 = tested on: HCT-116
TK-10 = tested on: TK-10
CAKI-1 = tested on: CAKI-1
LOX IMVI = tested on: LOX IMVI
KM12 = tested on: KM12
DLD-1 = tested on: DLD-1
XF498 = tested on: XF498
SK-MEL-2 = tested on: SK-MEL-2
SN12C = tested on: SN12C
SNB-19 = tested on: SNB-19
HOP-92 = tested on: HOP-92
SW-620 = tested on: SW-620
NCI-H23 = tested on: NCI-H23
M14 = tested on: M14
UACC-62 = tested on: UACC-62
SR = tested on: SR
NCI-H226 = tested on: NCI-H226
SF-295 = tested on: SF-295
U-251 = tested on: U-251
SNB-75 = tested on: SNB-75
SK-MEL-28 = tested on: SK-MEL-28
HCT-15 = tested on: HCT-15
DMS-273 = tested on: DMS-273
LXFL 529 = tested on: LXFL 529
MOLT-4 = tested on: MOLT-4
SF-268 = tested on: SF-268
SF-539 = tested on: SF-539
786-0 = tested on: 786-0
UACC-257 = tested on: UACC-257
DMS-114 = tested on: DMS-114
SK-OV-3 = tested on: SK-OV-3
NCI-H522 = tested on: NCI-H522
OVCAR-4 = tested on: OVCAR-4
SNB-78 = tested on: SNB-78
COLO 205 = tested on: COLO 205
HOP-18 = tested on: HOP-18
NCI-H460 = tested on: NCI-H460
OVCAR-3 = tested on: OVCAR-3
HCC 2998 = tested on: HCC 2998
CCRF-CEM = tested on: CCRF-CEM
HL-60 = tested on: HL-60
HT-29 = tested on: HT-29
RPMI-8226 = tested on: RPMI-8226

COc1ccc2nc3cc(Cl)ccc3c(Sc3ccc(N)cc3)c2c1
GI50 (KM-20L2): 4.59 µM (inactive) | GI50 (A549): 12.5 µM (inactive) | GI50 (ACHN): 10.1 µM (inactive) | GI50 (A498): 29.1 µM (inactive) | GI50 (K562): 3.42 µM (inactive) | GI50 (OVCAR-8): 11 µM (inactive) | GI50 (EKVX): 11.7 µM (inactive) | GI50 (UO-31): 10.8 µM (inactive) | GI50 (IGROV-1): 16.1 µM (inactive) | GI50 (RXF 393): 11.7 µM (inactive) | GI50 (M19-MEL): 7.62 µM (inactive) | GI50 (Malme-3M): 15 µM (inactive) | GI50 (HOP-62): 24.2 µM (inactive) | GI50 (SK-MEL-5): 12.4 µM (inactive) | GI50 (RXF 631): 11 µM (inactive) | GI50 (OVCAR-5): 19.8 µM (inactive) | GI50 (HCT-116): 4.78 µM (inactive) | GI50 (TK-10): 13.2 µM (inactive) | GI50 (CAKI-1): 12.9 µM (inactive) | GI50 (LOX IMVI): 7.6 µM (inactive) | GI50 (KM12): 6.76 µM (inactive) | GI50 (DLD-1): 4.47 µM (inactive) | GI50 (XF498): 14.2 µM (inactive) | GI50 (SK-MEL-2): 13.8 µM (inactive) | GI50 (SN12C): 11.6 µM (inactive) | GI50 (SNB-19): 16.9 µM (inactive) | GI50 (HOP-92): 24.4 µM (inactive) | GI50 (SW-620): 3.77 µM (inactive) | GI50 (NCI-H23): 14.1 µM (inactive) | GI50 (M14): 9.06 µM (inactive) | GI50 (UACC-62): 5.04 µM (inactive) | GI50 (SR): 2.62 µM (inactive) | GI50 (NCI-H226): 18.5 µM (inactive) | GI50 (SF-295): 16.7 µM (inactive) | GI50 (U-251): 10.5 µM (inactive) | GI50 (SNB-75): 11 µM (inactive) | GI50 (SK-MEL-28): 14.9 µM (inactive) | GI50 (HCT-15): 3.94 µM | GI50 (DMS-273): 10.6 µM (inactive) | GI50 (LXFL 529): 4.32 µM (inactive) | GI50 (MOLT-4): 2.56 µM (inactive) | GI50 (SF-268): 11.6 µM (inactive) | GI50 (SF-539): 13.9 µM (inactive) | GI50 (786-0): 6.95 µM (inactive) | GI50 (UACC-257): 13.2 µM (inactive) | GI50 (DMS-114): 4.99 µM (inactive) | GI50 (SK-OV-3): 4.37 µM (inactive) | GI50 (NCI-H522): 4.83 µM (inactive) | GI50 (OVCAR-4): 15.5 µM (inactive) | GI50 (SNB-78): 12.5 µM (inactive) | GI50 (COLO 205): 11.2 µM (inactive) | GI50 (HOP-18): 12.2 µM (inactive) | GI50 (NCI-H460): 7.98 µM (inactive) | GI50 (OVCAR-3): 9.57 µM (inactive) | GI50 (HCC 2998): 12.2 µM (inactive) | GI50 (CCRF-CEM): 3.81 µM (inactive)

O=S(=O)(O)SC/C=C\CSS(=O)(=O)O
GI50 (KM-20L2): > 100 µM (inactive) | GI50 (A549): > 100 µM (inactive) | GI50 (ACHN): > 100 µM (inactive) | GI50 (A498): > 100 µM (inactive) | GI50 (K562): > 100 µM (inactive) | GI50 (OVCAR-8): > 100 µM (inactive) | GI50 (EKVX): > 100 µM (inactive) | GI50 (UO-31): > 100 µM (inactive) | GI50 (IGROV-1): > 100 µM (inactive) | GI50 (RXF 393): > 100 µM (inactive) | GI50 (M19-MEL): > 100 µM (inactive) | GI50 (Malme-3M): > 100 µM (inactive) | GI50 (HL-60): > 100 µM (inactive) | GI50 (HOP-62): > 100 µM (inactive) | GI50 (SK-MEL-5): > 100 µM (inactive) | GI50 (RXF 631): > 100 µM (inactive) | GI50 (OVCAR-5): > 100 µM (inactive) | GI50 (HCT-116): > 100 µM (inactive) | GI50 (TK-10): > 100 µM (inactive) | GI50 (CAKI-1): > 100 µM (inactive) | GI50 (LOX IMVI): 29.4 µM (inactive) | GI50 (KM12): > 100 µM (inactive) | GI50 (DLD-1): > 100 µM (inactive) | GI50 (XF498): > 100 µM (inactive) | GI50 (SN12C): > 100 µM (inactive) | GI50 (SNB-19): > 100 µM (inactive) | GI50 (HOP-92): > 100 µM (inactive) | GI50 (SW-620): > 100 µM (inactive) | GI50 (NCI-H23): > 100 µM (inactive) | GI50 (M14): > 100 µM (inactive) | GI50 (UACC-62): > 100 µM (inactive) | GI50 (SR): > 100 µM (inactive) | GI50 (NCI-H226): > 100 µM (inactive) | GI50 (SF-295): > 100 µM (inactive) | GI50 (U-251): 61.2 µM (inactive) | GI50 (SNB-75): > 100 µM (inactive) | GI50 (SK-MEL-28): > 100 µM (inactive) | GI50 (HCT-15): 65.8 µM | GI50 (DMS-273): > 100 µM (inactive) | GI50 (HT-29): > 100 µM (inactive) | GI50 (LXFL 529): > 100 µM (inactive) | GI50 (MOLT-4): 35.8 µM (inactive) | GI50 (SF-268): > 100 µM (inactive) | GI50 (SF-539): > 100 µM (inactive) | GI50 (786-0): > 100 µM (inactive) | GI50 (UACC-257): > 100 µM (inactive) | GI50 (DMS-114): > 100 µM (inactive) | GI50 (SK-OV-3): > 100 µM (inactive) | GI50 (NCI-H522): > 100 µM (inactive) | GI50 (RPMI-8226): > 100 µM (inactive) | GI50 (OVCAR-4): > 100 µM (inactive) | GI50 (SNB-78): > 100 µM (inactive) | GI50 (COLO 205): > 100 µM (inactive) | GI50 (HOP-18): > 100 µM (inactive) | GI50 (NCI-H460): 42.2 µM (inactive) | GI50 (OVCAR-3): > 100 µM (inactive) | GI50 (HCC 2998): > 100 µM (inactive)
